Values joined by “and” are separate entries in the source; they are usually repeats but may differ in a detail not shown here. Identical values can stand only once. Non-standard residues stand in square brackets, D forms with d. Residues, ends and D or L forms follow the SMILES beside them. *: point of attachment. Dolaproine = CO[C@@H]([C@@H]1CCCN1)[C@@H](C)C(=O)O; Dil = CC[C@H](C)[C@H](NC)[C@@H](CC(=O)O)OC; X1 = C[C@@H](N*)[C@@H](O)c1ccccc1; NMeV = CN[C@H](C(=O)O)C(C)C
How the values were obtained:
Karpas 299 cells (CD30) = test: In vitro cell viability assay (Cell-Titer Glo), Karpas 299; assay type: cell-based, Human; conditions: Karpas 299, 96 h treatment
Source text: Viability was expressed as % of untreated cells and calculated using the following formula: […]

LNCaP cells (PSMA) = test: In vitro cell viability assay (Cell-Titer Glo), LNCaP; assay type: cell-based; conditions: 96 h treatment
Source text: (§1) Loss of tumour cell viability following treatment with cytotoxic drugs in vitro can be measured by growing cell lines in the presence of increasing concentrations of drug and quantifying the loss of proliferation or metabolic activity using Cell-Titer Glo® Luminescent reagent (Promega). The protocol for PSMA and CD30 overexpressing cell lines describes cell seeding, drug treatment and determination of the cell viability in reference to untreated cells based on ATP synthesis, which is directly correlated to the number of cells present in the well.
(§2) The cell lines listed in Table 2 were maintained following the suppliers' recommendations.
(§3) Adherent PSMA-positive LNCaP and C4-2 cells were detached with TrypLE and resuspended in complete medium. Cells were counted using disposable Neubauer counting chambers and cell density adjusted to 10×10^4 cells/mL for LNCaP and 2×10^4 cells/mL for C4-2, respectively. […]
(§4) The cell viability assay was carried out using the Cell-Titer Glo® Luminescence reagent, as described by the manufacturer's instructions, (Promega Corp. Technical Bulletin TB288; Lewis Phillips G. D, Cancer Res 2008; 68:9280-9290).
(§5) Luminescence was recorded using a Molecular Devices Spectramax i3x plate reader and data subsequently analysed using GraphPad Prism four parameter non-linear regression model. […]

C4-2 cells (PSMA) = test: In vitro cell viability assay (Cell-Titer Glo), C4-2; assay type: cell-based; conditions: C4-2, 96 h treatment
Source text: as §1, §2, §3, §4, §5

[1] = tested on: Karpas-299 cells (T-anaplastic large cell lymphoma, ALCL); test: Karpas-299 mouse xenograft study; assay type: in vivo, CB17-SCID mice; conditions: single i.v. 1 mg/kg on day 12, groups of eight mice
Description: Healthy female CB17-SCID mice (CBySmn.CB17-Prkdcscid/J, Charles River Laboratories) with an average body weight of 18.1 g were used for cell inoculation (Day 0). 24 to 72 h prior to tumour cell injection, the mice were γ-irradiated (1.44 Gy, ^60Co). The animals were maintained in SPF health status according to the FELASA guidelines in housing rooms under controlled environmental conditions.
Tumours were induced by subcutaneous injection of 10^7 Karpas-299 cells (T-anaplastic large cell lymphoma, ALCL) in 200 μL of RPMI 1640 into the right flank. Tumours were measured twice a week with calipers, and the volume was estimated using the formula: […]
Twelve days after tumour implantation (Day 12), the animals were randomised into groups of eight mice using Vivo manager® software (211 mm^3 mean tumour volume) and treatment was initiated. The animals from the vehicle group received a single intravenous (i.v.) injection of PBS. The treated groups were dosed with a single i.v. injection of ADC at 0.8 mg/kg, or Adcetris© (brentuximab vedotin) at 1 mg/kg.
Treatment tolerability was assessed by bi-weekly body weight measurement and daily observation for clinical signs of treatment-related side effects. Mice were euthanized when a humane endpoint was reached (e.g. 1,600 mm^3 tumour volume) or after a maximum of 9 weeks post-dosing. Asterisks within the graphs indicate where animals were euthanized. […]

| Compound | IC50 (Karpas 299 cells (CD30)) | IC50 (LNCaP cells (PSMA)) [nM] | IC50 (C4-2 cells (PSMA)) [nM] | Animals with tumour re-growth ([1]; after day 20) | Animals with no measureable tumour at end of study (day 71) [1] |
| --- | --- | --- | --- | --- | --- |
| CC[C@H](C)[C@@H]([C@@H](CC(=O)N1CCC[C@H]1[C@H](OC)[C@@H](C)C(=O)N[C@H](C)[C@@H](O)c1ccccc1)OC)N(C)C(=O)[C@@H](NC(=O)[C@@H](NC)C(C)C)C(C)C [MMAE, monomethyl auristatin E] (H-[NMeV]V[Dil][Dolaproine]-X1) | 0.15 nM and 0.2 nM | 2.14 | 0.71 |  |  |
| brentuximab vedotin [Adcetris®] |  |  |  | 7/8 | 1/8 |

From patent publication US11865183B2, “Conjugates and conjugating reagents comprising a linker that includes at least two (−CH2—CH2—O—) units in a ring” (priority 2016, dated 2024)
